Target: Rat nNOS (Rattus norvegicus, UniProt P29476)
Test: NOS inhibition assay, Ki for rat nNOS
Type: biochemical

SMILES | increase in nNOS potency (8a vs 1b (m-chloro for m-fluoro)) [fold] | lower potency for rat nNOS (8b vs 8a) [fold]
Cc1cc(N)nc(C[C@@H]2CNC[C@@H]2OCCNCC(F)(F)c2cccc(Cl)c2)c1 [Compound 8a, 6-(((3R,4R)-4-(2-((2,2-Difluoro-2-(3-chlorophenyl)ethyl)amino)ethoxy)pyrrolidin-3-yl)methyl)-4-methylpyridin-2-amine] | 1.3 | –
Cc1cc(N)nc(C[C@@H]2CNC[C@@H]2OCCNCC(F)(F)c2ccccc2Cl)c1 [Compound 8b, 6-(((3R,4R)-4-(2-((2,2-Difluoro-2-(2-chlorophenyl)ethyl)amino)ethoxy)pyrrolidin-3-yl)methyl)-4-methylpyridin-2-amine] | – | 2
